In the oligonucleotide strings, read from the 5' end, every base follows the letter of its sugar. An asterisk marks phosphorothioate; unmarked linkages are phosphodiester. Other units and linkages are bracketed, terminal groups are in braces. A string of capitals states the bases alone. e = 2'-O-(2-methoxyethyl) (MOE); [5mC] = 5-methylcytosine; d = 2'-deoxy (DNA)
test system: human Factor 7 mRNA; experiment: Inhibition of human Factor 7 mRNA by 2-10-2 MOE shortmers in HepB3 cells, electroporation, 1,000 nM; assay type: cell-based; settings: electroporation, 1,000 nM oligonucleotide, approximately 24 hours, relative to untreated control cells
Excerpt: Short antisense oligonucleotides (shortmers) were designed to target a Factor 7 nucleic acid. The shortmers in Table 17 were designed as 2-10-2 MOE gapmers. The gapmers are 14 nucleotides in length, wherein the central gap segment is comprised of 10 2′-deoxynucleotides and is flanked on both sides (in the 5′ and 3′ directions) by wings comprising 2 nucleotides each. Each nucleotide in the 5′ wing segment and each nucleotide in the 3′ wing segment has a 2′-MOE modification. The internucleoside linkages throughout each gapmer are phosphorothioate (P═S) linkages. All cytidine residues throughout each gapmer are 5-methylcytidines.
Shortmers were evaluated for their ability to reduce human Factor 7 mRNA in HepB3 cells and compared with one 5-10-5 chimeric oligonucleotide from Table 16, ISIS 407939. HepB3 cells at a density of 20,000 cells per well in a 96-well plate were transfected using electroporation with 1,000 nM of antisense oligonucleotide. After a treatment period of approximately 24 hours, RNA was isolated from the cells and Factor 7 mRNA levels were measured by real-time RT-PCR, as described herein. Factor 7 mRNA levels were adjusted according to total RNA content as measured by RIBOGREEN®. Results are presented in Table 17 as percent inhibition of Factor 7 mRNA, relative to untreated control cells. ISIS 407939 is the first oligonucleotide in […] to which the shortmers were compared, and is marked by an asterisk (*).

How did the “% inhibition of human Factor 7 mRNA” value turn out when “435658 (antisense eT*e[5mC]*dA*d[5mC]*dT*dG*d[5mC]*dA*dG*dT*dA*d[5mC]*eT*eG) [compound 435658]” was run?
The value was 60%.

With “435498 (antisense eT*eG*dG*dG*dA*dG*dA*d[5mC]*d[5mC]*d[5mC]*dT*dG*eG*eT) [compound 435498]” as the substance, how does the “% inhibition of human Factor 7 mRNA” value read?
The value was 37%.

For “435682 (antisense eG*eG*dA*dT*dG*dA*dT*dG*dA*d[5mC]*d[5mC]*dT*eG*e[5mC]) [compound 435682]”, which “% inhibition of human Factor 7 mRNA” value is on record?
The value was 36%.

For “435810 (antisense e[5mC]*eT*dG*dA*dG*dG*dG*dA*dA*dT*dG*dT*eT*eG) [compound 435810]”, which “% inhibition of human Factor 7 mRNA” value is on record?
The value was 1%.

With “435638 (antisense eA*eG*d[5mC]*d[5mC]*d[5mC]*dT*dG*dA*dA*dG*d[5mC]*d[5mC]*e[5mC]*eA) [compound 435638]” as the substance, how does the “% inhibition of human Factor 7 mRNA” value read?
Its value is 55%.

“435788 (antisense e[5mC]*e[5mC]*dT*dG*dT*dG*dA*dG*dT*dG*dT*dG*eA*eG) [compound 435788]” was tested. Which “% inhibition of human Factor 7 mRNA” value did it give?
Its value is 20%.

“435670 (antisense e[5mC]*eA*dA*d[5mC]*dA*dG*dG*dA*d[5mC]*d[5mC]*dT*dG*e[5mC]*e[5mC]) [compound 435670]” was tested. Which “% inhibition of human Factor 7 mRNA” value did it give?
The value was 47%.

Which “% inhibition of human Factor 7 mRNA” value does the source give for “435802 (antisense eG*eT*d[5mC]*dA*d[5mC]*d[5mC]*dT*dA*dG*dA*d[5mC]*d[5mC]*eA*eA) [compound 435802]” here?
Its value is 61%.

Which “% inhibition of human Factor 7 mRNA” value does the source give for “435735 (antisense eT*eG*dG*dT*dG*dA*dT*dG*d[5mC]*dT*dT*d[5mC]*eT*eG) [compound 435735]” here?
The value was 81%.

With “435814 (antisense eT*eG*dA*d[5mC]*dG*dA*dG*dA*dG*dG*dA*d[5mC]*e[5mC]*eA) [compound 435814]” as the substance, how does the “% inhibition of human Factor 7 mRNA” value read?
The value was 31%.

How did the “% inhibition of human Factor 7 mRNA” value turn out when “435645 (antisense eG*eG*dA*dG*d[5mC]*dT*dG*dG*dT*d[5mC]*d[5mC]*dT*eT*eG) [compound 435645]” was run?
The value was 44%.

How did the “% inhibition of human Factor 7 mRNA” value turn out when “435736 (antisense eA*eT*dG*d[5mC]*dA*dT*dG*dG*dT*dG*dA*dT*eG*e[5mC]) [compound 435736]” was run?
The value was 50%.

How did the “% inhibition of human Factor 7 mRNA” value turn out when “435749 (antisense e[5mC]*eA*dG*d[5mC]*d[5mC]*dA*dG*dG*dG*d[5mC]*d[5mC]*dT*eG*eG) [compound 435749]” was run?
The value was 29%.

How did the “% inhibition of human Factor 7 mRNA” value turn out when “435768 (antisense eG*e[5mC]*d[5mC]*dT*dG*dG*dA*dT*dG*d[5mC]*dT*dG*eG*eT) [compound 435768]” was run?
Its value is 75%.

“435773 (antisense e[5mC]*eA*dG*dG*dG*dA*dA*d[5mC]*dA*d[5mC]*d[5mC]*d[5mC]*eT*e[5mC]) [compound 435773]” was tested. Which “% inhibition of human Factor 7 mRNA” value did it give?
Its value is 57%.

“435654 (antisense eG*e[5mC]*d[5mC]*dG*dT*dT*d[5mC]*dT*d[5mC]*dG*dT*dT*e[5mC]*eA) [compound 435654]” was tested. Which “% inhibition of human Factor 7 mRNA” value did it give?
Its value is 71%.

With “435782 (antisense e[5mC]*eG*dT*dG*d[5mC]*dG*d[5mC]*dT*d[5mC]*dA*dG*d[5mC]*eT*e[5mC]) [compound 435782]” as the substance, how does the “% inhibition of human Factor 7 mRNA” value read?
Its value is 36%.

Which “% inhibition of human Factor 7 mRNA” value does the source give for “435835 (antisense eT*eT*dA*dT*dT*dT*dG*dG*dG*d[5mC]*dA*dT*eG*eG) [compound 435835]” here?
The value was 7%.

How did the “% inhibition of human Factor 7 mRNA” value turn out when “435483 (antisense e[5mC]*eT*dG*dG*dG*dT*d[5mC]*dA*dT*d[5mC]*dA*dG*e[5mC]*e[5mC]) [compound 435483]” was run?
The value was 82%.

“435719 (antisense e[5mC]*eA*dG*d[5mC]*d[5mC]*dT*dT*dG*dG*d[5mC]*dT*dT*eT*e[5mC]) [compound 435719]” was tested. Which “% inhibition of human Factor 7 mRNA” value did it give?
Its value is 50%.

How did the “% inhibition of human Factor 7 mRNA” value turn out when “435793 (antisense eT*eG*d[5mC]*dA*dG*dT*dA*dG*d[5mC]*dA*dG*dA*eT*eG) [compound 435793]” was run?
The value was 27%.

With “435726 (antisense eG*e[5mC]*dA*dA*dT*dG*dA*dA*dG*dG*d[5mC]*dA*eG*eA) [compound 435726]” as the substance, how does the “% inhibition of human Factor 7 mRNA” value read?
Its value is 26%.

How did the “% inhibition of human Factor 7 mRNA” value turn out when “435822 (antisense e[5mC]*e[5mC]*dA*dG*dG*dA*dG*d[5mC]*d[5mC]*dT*dT*dT*eA*e[5mC]) [compound 435822]” was run?
The value was 37%.

For “435745 (antisense eG*eG*dG*dA*dG*d[5mC]*dT*dA*d[5mC]*dA*dG*d[5mC]*e[5mC]*eT) [compound 435745]”, which “% inhibition of human Factor 7 mRNA” value is on record?
Its value is 0%.

Which “% inhibition of human Factor 7 mRNA” value does the source give for “435844 (antisense eT*eG*dG*d[5mC]*d[5mC]*dA*dG*dT*dG*dG*d[5mC]*d[5mC]*eT*e[5mC]) [compound 435844]” here?
Its value is 30%.

With “435694 (antisense e[5mC]*eT*dG*d[5mC]*dA*dG*dG*d[5mC]*dA*dG*dT*d[5mC]*e[5mC]*eT) [compound 435694]” as the substance, how does the “% inhibition of human Factor 7 mRNA” value read?
The value was 39%.

For “435772 (antisense eG*e[5mC]*dA*dG*dT*d[5mC]*d[5mC]*d[5mC]*dT*dG*d[5mC]*dT*e[5mC]*eA) [compound 435772]”, which “% inhibition of human Factor 7 mRNA” value is on record?
Its value is 42%.

How did the “% inhibition of human Factor 7 mRNA” value turn out when “435812 (antisense eG*e[5mC]*dT*dG*dA*dG*d[5mC]*dA*dG*dA*dG*dA*eT*e[5mC]) [compound 435812]” was run?
The value was 35%.

Which “% inhibition of human Factor 7 mRNA” value does the source give for “435789 (antisense e[5mC]*eA*dT*dG*dT*dT*dA*dG*d[5mC]*d[5mC]*dT*dT*eT*eG) [compound 435789]” here?
The value was 3%.

How did the “% inhibition of human Factor 7 mRNA” value turn out when “435479 (antisense e[5mC]*eA*d[5mC]*dT*d[5mC]*d[5mC]*d[5mC]*d[5mC]*dT*dT*dT*dG*eG*eG) [compound 435479]” was run?
Its value is 9%.

With “435755 (antisense eG*eG*dG*dA*d[5mC]*dT*d[5mC]*dA*dG*d[5mC]*dA*dA*eG*eA) [compound 435755]” as the substance, how does the “% inhibition of human Factor 7 mRNA” value read?
Its value is 0%.

“435689 (antisense eT*eT*d[5mC]*dG*dG*dG*d[5mC]*dA*dG*dG*d[5mC]*dA*eG*eA) [compound 435689]” was tested. Which “% inhibition of human Factor 7 mRNA” value did it give?
The value was 23%.

For “435787 (antisense eG*eA*dG*dT*dG*dT*dG*dA*dG*dG*d[5mC]*dT*eT*e[5mC]) [compound 435787]”, which “% inhibition of human Factor 7 mRNA” value is on record?
The value was 34%.

With “435722 (antisense eT*eG*dG*dG*d[5mC]*dT*dT*dG*dG*d[5mC]*dT*dG*eA*eA) [compound 435722]” as the substance, how does the “% inhibition of human Factor 7 mRNA” value read?
The value was 50%.

“435786 (antisense eA*eG*dG*dT*dG*dA*d[5mC]*d[5mC]*d[5mC]*dG*dT*dG*eA*eG) [compound 435786]” was tested. Which “% inhibition of human Factor 7 mRNA” value did it give?
Its value is 68%.

“435796 (antisense eT*eG*dA*d[5mC]*d[5mC]*dA*d[5mC]*dA*d[5mC]*dA*dT*dT*eT*e[5mC]) [compound 435796]” was tested. Which “% inhibition of human Factor 7 mRNA” value did it give?
The value was 30%.

For “435806 (antisense eT*eG*dA*d[5mC]*d[5mC]*d[5mC]*d[5mC]*dA*d[5mC]*dA*dG*dG*eG*eA) [compound 435806]”, which “% inhibition of human Factor 7 mRNA” value is on record?
The value was 7%.

How did the “% inhibition of human Factor 7 mRNA” value turn out when “435764 (antisense eT*eG*dA*dG*dA*dG*d[5mC]*dT*dG*d[5mC]*dA*d[5mC]*e[5mC]*eT) [compound 435764]” was run?
Its value is 8%.

How did the “% inhibition of human Factor 7 mRNA” value turn out when “435478 (antisense eG*eA*dG*dG*d[5mC]*dA*d[5mC]*dA*d[5mC]*dT*dG*dG*eT*e[5mC]) [compound 435478]” was run?
The value was 43%.

“435665 (antisense eA*eG*dG*dT*dA*dT*dT*dT*dT*dT*d[5mC]*d[5mC]*eA*e[5mC]) [compound 435665]” was tested. Which “% inhibition of human Factor 7 mRNA” value did it give?
The value was 0%.

With “435842 (antisense eA*eT*dT*dT*d[5mC]*d[5mC]*d[5mC]*dA*dT*dT*dG*dG*e[5mC]*eA) [compound 435842]” as the substance, how does the “% inhibition of human Factor 7 mRNA” value read?
Its value is 0%.

“435784 (antisense e[5mC]*e[5mC]*dT*dA*dA*dG*dT*dG*dT*dG*d[5mC]*dT*eT*eT) [compound 435784]” was tested. Which “% inhibition of human Factor 7 mRNA” value did it give?
The value was 17%.

Which “% inhibition of human Factor 7 mRNA” value does the source give for “435775 (antisense eT*e[5mC]*dT*dG*dG*dA*dA*dG*dG*dA*dA*d[5mC]*eA*eG) [compound 435775]” here?
Its value is 25%.

With “435824 (antisense e[5mC]*e[5mC]*dT*dA*dA*dA*dG*dA*dT*dG*dA*dA*eT*e[5mC]) [compound 435824]” as the substance, how does the “% inhibition of human Factor 7 mRNA” value read?
Its value is 21%.

For “435813 (antisense eG*eG*dA*dT*dG*d[5mC]*dA*d[5mC]*dA*d[5mC]*d[5mC]*dA*eG*eG) [compound 435813]”, which “% inhibition of human Factor 7 mRNA” value is on record?
Its value is 55%.

How did the “% inhibition of human Factor 7 mRNA” value turn out when “435821 (antisense eA*eG*dT*d[5mC]*dA*dG*dT*dA*d[5mC]*dA*dG*dA*e[5mC]*eA) [compound 435821]” was run?
The value was 0%.

For “435758 (antisense e[5mC]*e[5mC]*d[5mC]*dT*dG*dA*dG*d[5mC]*dT*dG*dG*dG*e[5mC]*eA) [compound 435758]”, which “% inhibition of human Factor 7 mRNA” value is on record?
Its value is 4%.

For “435826 (antisense eA*eA*dG*dT*dG*dG*d[5mC]*dT*dG*dG*d[5mC]*dT*eG*eA) [compound 435826]”, which “% inhibition of human Factor 7 mRNA” value is on record?
The value was 27%.

Reference: US20120214862A1, “MODULATION OF FACTOR 7 EXPRESSION” (ISIS Pharmaceuticals, Inc., priority 2009, published 2012)
